Results as given in patent publication US20200339691A1, “PROTEINACEOUS MOLECULES AND USES THEREFOR” (priority 2018, published 2020).
Where a SMILES comes first, the peptide text is derived from it. The star is where a group is joined. Myristoyl = CCCCCCCCCCCCCC(=O)*

Columns and labels:
[1] = system: MDA-MB-231 cells; settings: 72 h;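 on COI, Live Single Cells (Cell Count): live means Hoechst-negative events among single cells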
Method: The effect of P1, P2 and P3 (synthesized in accordance with Example 5) on MDA-MB-231 cell proliferation was assessed using a WST-1 proliferation assay.
MCF7 cells were transfected with a plasmid containing the wild-type PD-L1 sequence, a plasmid containing a PD-L1 [K263Q] mutant (Mut1) or vector only (VO) using the NEON electroporation transfection system (Life Technologies). Transfected cells were used for the colorimetric based WTS-1 proliferation assay (Sigma-Aldrich) to examine the effect of transfection on MCF7 cell proliferation. The WTS-1 proliferation assay was also used to determine the effect of treatment with P1, P2 and P3 (synthesized in accordance with Example 5) on MDA-MB-231 cell proliferation. The stable tetrazolium salt WST-1 is cleaved to a soluble formazan by a complex cellular mechanism that occurs primarily at the cell surface. This bioreduction is largely dependent on the glycolytic production of NAD(P)H in viable cells. Therefore, the amount of formazan dye formed directly correlates to the number of metabolically active cells in the culture. Cells grown in a 96-well tissue culture plate were treated with vehicle only or 6.25, 12.5, 25, 50, 100, 200 or 400 μM of P1, P2 or P3 for 72 hours at 37° C. in a humidified CO2 incubator. Cells were then incubated with the WST-1 reagent for 0.5-4 hours. Following incubation, the formazan dye formed is quantitated with a scanning multi-well spectrophotometer (ELISA reader). The measured absorbance directly correlates to the number of viable cells.

[2] = system: acetylated PD-L1 and p300; assay: Colocalization (PCC(r)) of acetylated PD-L1 and p300 in MDA-MB-231 cells; type: cell-based, human; settings: 50 μm
Method: The effect of P1, P2, P3 and P4 (synthesized in accordance with Example 5) on p300 localization was examined using confocal laser scanning microscopy. […] Cover slips were mounted on glass microscope slides with ProLong Diamond Antifade reagent (Life Technologies). Protein targets were localized by confocal laser scanning microscopy as described above. TNFI and PCC(r) were calculated using ImageJ software as previously described.

[3] = system: cell surface vimentin (CSV); assay: Immunofluorescence of CSV in MDA-MB-231 cells, Example 9; type: cell-based, human; settings: 50 μM, 72 hours
Method: 1×10^4 MDA-MB-231 cells were seeded onto coverslips in 12 well plates with DMEM media. Cells were treated with 50 μM P1, P2, P3 or P4 (synthesized in accordance with Example 5) or vehicle (water) for 72 hours. Cells were fixed with 3.7% formaldehyde and permeabilized with 2% Triton-X-100, then probed with primary mouse antibodies to CSV, DMNT1, H3K9me3 or 5-methylcytosine; primary goat antibodies to SNAI1, SETDB1 or ABCB5; or primary rabbit antibodies to PD-L1, EGFR, EHMT2; followed by the corresponding secondary antibody conjugated to anti-mouse Alexa-Fluor 568, anti-goat Alexa-Fluor 633 or anti-rabbit Alexa-Fluor 488. Confocal laser scanning microscopy was used to measure the TFI, TNFI and TCFI as described above. At least 20 individual cells were analyzed per sample.

[4] = system: CD44^hiCD24^lo CSCs in MCF7 cells; assay: FACS analysis of CD44^hiCD24^lo CSCs in MCF7 cells; type: cell-based, human; settings: 50 μM peptide, 48 hours
Method: (§1) P1 Analogues were synthesized in accordance with the procedure of Example 5. 4×10^4 MDA-MB-231 cells or 1×10^4 induced or non-induced MCF7 cells were seeded in a 12 well plate with 1 mL complete media overnight. Induced MCF7 cells were prepared by stimulating cells with PMA/TGF-β and incubating for 12 hours. Cells were treated with 50 μM test peptide (dissolved in water) for 48 hours. Cells were then washed twice with 1 mL PBS and harvested by trypsinisation. Non-adherent cells were removed during the washing steps. Adherent cells were collected, and were subsequently stained with anti-human CD44, CD24 and Hoechst 33342 antibodies on ice for 30 mins. FACS was performed on BD FACS LSRII to measure the percentage of CD44^hiCD24^lo CSCs by dividing CD44^hiCD24^lo events by total live cell counts (Hoechst negative population) (as described in Fillmore and Kuperwasser (2007) Breast Cancer Res, 9: 303). The percentage of viable cells was calculated by dividing total live cell events by total single cells as described previously (Siemann and Keng (1986), Cancer Res, 46: 3556-3559).

[5] = system: PD-L1; assay: Immunofluorescence of PD-L1 in MDA-MB-231 cells, Example 14; type: cell-based, human; settings: 50 μM, 72 hours
Method: 1×10^4 MDA-MB-231 cells were treated with 50 μM P1, P2, P3 (synthesized in accordance with Example 5) or vehicle (water) for 72 hours. Cells were fixed with 3.7% formaldehyde and permeabilized with 2% Triton-X-100, then probed with a primary rabbit antibody to PD-L2, primary goat antibody to PD-L1 and primary mouse antibody to CSV, followed by the corresponding secondary antibody conjugated to anti-mouse Alexa-Fluor 568, anti-goat Alexa-Fluor 633 or anti-rabbit Alexa-Fluor 488. Confocal laser scanning microscopy was used to measure the TNFI and TCFI as described above. At least 20 individual cells were analyzed per sample.

[6] = system: MCF7 cells; settings: MCF7 cells, 50 μM peptide, 48 hours
Method: as §1

[7] = system: MDA-MB-231 cells; type: cell-based, human; settings: 50 μM peptide, 48 hours, n = 1;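 on COI, Live Single Cells (Cell Count): live means Hoechst-negative events among single cells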
Description: (§2) Non-adherent cells were removed during the washing steps.

[8] = system: CD44^hiCD24^lo CSCs in MDA-MB-231 cells; assay: FACS analysis of CD44^hiCD24^lo cancer stem cells in MDA-MB-231 cells treated with P1 analogues; type: cell-based, human; settings: 50 μM peptide, 48 hours; for CD44^hiCD24^lo CSCs (%) / COI, Live Single CD44^hiCD24^lo CSCs (Cell Count): n = 1; for Average Inhibition of CSCs (%) / CD44^hiCD24^lo CSCs (%) Repeat 1 / CD44^hiCD24^lo CSCs (%) Repeat 2 / CD44^hiCD24^lo CSCs (%) Repeat 3: n = 3
Method: Analogues of P1 (Table 6) were designed and synthesized in accordance with the procedure of Example 5. The ability of these analogues to inhibit cancer stem cells was determined using FACS analysis on MDA-MB-231 cells, which constitutively contain approximately 90% CD44^hiCD24^lo cancer stem cells, treated with the peptides.
as §2

| Compound | IC50 [1] | colocalization of acetylated PD-L1 and p300 [2] | expression of CSV [3] | CD44^hiCD24^lo CSC % [4] | COI/Single Cells/Live/CD44^hiCD24^lo CSCs Count [4] | nuclear localization of PD-L1 [5] | % Viable Cells [6] | COI Count [6] | COI/Single Cell Count [6] | COI/Single Cells/Live Count [6] | Total Count [6] | COI (Cell Count) [7] | COI, Live Single Cells (Cell Count) [7] | COI, Single (Cell Count) [7] | Total Cell Count [7] | Viable Cells (%) [7] | Inhibition of CSCs (%) Repeat 1 [8] | Inhibition of CSCs (%) Repeat 2 [8] | Inhibition of CSCs (%) Repeat 3 [8] | CD44^hiCD24^lo CSCs (%) [8] | further results |
| --- | --- | --- | --- | --- | --- | --- | --- | --- | --- | --- | --- | --- | --- | --- | --- | --- | --- | --- | --- | --- | --- |
| CCCCCCCCCCCCCC(=O)N[C@@H](CC(C)C)C(=O)N[C@H](C(=O)N[C@@H](Cc1ccccc1)C(=O)N[C@H](C(=O)N[C@@H](Cc1ccccc1)C(=O)N[C@@H](CCCNC(=N)N)C(=O)N[C@@H](CC(C)C)C(=O)N[C@@H](CCCNC(=N)N)C(=O)N[C@@H](CCC(N)=O)C(=O)NCC(=O)N[C@@H](CCCNC(=N)N)C(=O)N[C@@H](CCSC)C(=O)N[C@@H](CCSC)C(=O)N[C@@H](CC(=O)O)C(=O)N[C@H](C(=O)N[C@@H](CCCCN)C(=O)N[C@@H](CCCCN)C(N)=O)C(C)C)[C@@H](C)CC)[C@@H](C)O [Peptide P2, Myristoyl-LTFIFRLRQGRMMDVKK-NH2] (Myristoyl-LTFIFRLRQGRMMDVKK-NH2) | 564 µM | significantly decreased | uniformly inhibited | 2.82% | 123 | significantly inhibited | 97.19% | 5603 | 4482 | 4356 | 10000 | 6317 | 4402 | 4580 | 12706 | 96.11% | 79.10% | 82.65% | 85.94% | 13.99% | COI, Live Single CD44^hiCD24^lo CSCs (Cell Count) [8]: 616; Average Inhibition of CSCs (%) [8]: 82.56%; CD44^hiCD24^lo CSCs (%) Repeat 1 [8]: 18.73%; CD44^hiCD24^lo CSCs (%) Repeat 2 [8]: 15.56%; CD44^hiCD24^lo CSCs (%) Repeat 3 [8]: 12.62% |
| CCCCCCCCCCCCCC(=O)N[C@@H](CC(C)C)C(=O)N[C@H](C(=O)N[C@@H](Cc1ccccc1)C(=O)N[C@H](C(=O)N[C@@H](Cc1ccccc1)C(=O)N[C@@H](CCCNC(=N)N)C(=O)N[C@@H](CC(C)C)C(=O)N[C@@H](CCCNC(=N)N)C(=O)N[C@@H](CCCCNC(C)=O)C(=O)NCC(=O)N[C@@H](CCCNC(=N)N)C(=O)N[C@@H](CCSC)C(=O)N[C@@H](CCSC)C(=O)N[C@@H](CC(=O)O)C(=O)N[C@H](C(=O)N[C@@H](CCCCN)C(=O)N[C@@H](CCCCN)C(N)=O)C(C)C)[C@@H](C)CC)[C@@H](C)O [Peptide P3, Myristoyl-LTFIFRLRK(Ac)GRMMDVKK-NH2] (Myristoyl-LTFIFRLRK(Ac)GRMMDVKK-NH2) | 542 µM | significantly decreased | uniformly inhibited | 3.26% | 162 | significantly inhibited | 98.47% | 6007 | 5039 | 4962 | 10000 | 6874 | 5099 | 5237 | 20311 | 97.36% | 92.77% | 91.10% | 87.85% | 8.04% | COI, Live Single CD44^hiCD24^lo CSCs (Cell Count) [8]: 410; Average Inhibition of CSCs (%) [8]: 90.57%; CD44^hiCD24^lo CSCs (%) Repeat 1 [8]: 6.48%; CD44^hiCD24^lo CSCs (%) Repeat 2 [8]: 7.99%; CD44^hiCD24^lo CSCs (%) Repeat 3 [8]: 10.90% |
| CCCCCCCCCCCCCC(=O)N[C@@H](CC(C)C)C(=O)N[C@H](C(=O)N[C@@H](Cc1ccccc1)C(=O)N[C@H](C(=O)N[C@@H](Cc1ccccc1)C(=O)N[C@@H](CCCNC(=N)N)C(=O)N[C@@H](CC(C)C)C(=O)N[C@@H](CCCNC(=N)N)C(=O)N[C@@H](CCCCN)C(=O)NCC(=O)N[C@@H](CCCNC(=N)N)C(=O)N[C@@H](CCSC)C(=O)N[C@@H](CCSC)C(=O)N[C@@H](CC(=O)O)C(=O)N[C@H](C(=O)N[C@@H](CCCCN)C(=O)N[C@@H](CCCCN)C(N)=O)C(C)C)[C@@H](C)CC)[C@@H](C)O [Peptide P1, Myristoyl-LTFIFRLRKGRMMDVKK-NH2] (Myristoyl-LTFIFRLRKGRMMDVKK-NH2) | 103 µM | significantly decreased | uniformly inhibited | 4.36% | 233 | significantly inhibited | 95.65% | 6567 | 5585 | 5342 | 10000 | 2038 | 1395 | 1523 | 4339 | 91.60% | 93.33% | 89.97% | 90.28% | 15.77% | COI, Live Single CD44^hiCD24^lo CSCs (Cell Count) [8]: 220; Average Inhibition of CSCs (%) [8]: 91.19%; CD44^hiCD24^lo CSCs (%) Repeat 1 [8]: 5.98%; CD44^hiCD24^lo CSCs (%) Repeat 2 [8]: 9.00%; CD44^hiCD24^lo CSCs (%) Repeat 3 [8]: 8.72% |
